Molecules are shown by their SMILES. Values joined by “and” are separate entries in the source; they are usually repeats but may differ in a detail not shown here. Equal values may be shown once. A value given as a limit tells only on which side of the number the result lay.

In this test the test system is 817829-284-R-J1-PDC complex spheroids, viability. Description: Anticancer human tumor 817829-284-R-J1-PDC patient-derived colon adenocarcinoma cell line growth inhibition [GQUAD]. Particulars: for viability, T/C: stronger effect = lower value. The text has this: DNA G-quadruplex Stabilizer Agents in Combinations in Complex Spheroids
A high-throughput screen of multi-cell type tumor spheroids was designed to identify active combinations of DNA G-quadruplex stabilizer agents and targeted small molecules. Complex spheroids include a stromal component modeled by human endothelial cells (HUVEC) and fibroblasts modeled by human mesenchymal stem cells (MSCs). The concentration ranges selected for each drug and investigational agent were based upon clinically achievable concentrations if the clinical Cmax of the agent was known.
Compounds. The drugs and investigational agents: pidnarulex (CX-5461; NSC782164), APTO-253 (NSC789042), BRACO-19 (NSC847499), peposertib (NSC802822), ceralasertib (NSC780249), elimusertib (NSC800525), camonsertib (NSC841442), AZD-1390 (NSC803789), olaparib (NSC753686), talazoparib (NSC767125), ART-558 (NSC835418), sotorasib (NSC818433), MRTX-1133 (NSC836407), SN-38 (NSC673596), topotecan (NSC609699), etoposide (NSC141540), doxorubicin (NSC123127), gemcitabine (NSC613327), 5-fluorouracil (NSC19893), paclitaxel (NSC125973), vemurafenib (NSC761431), panobinostat (NSC761190), R-306465 (JNJ-16241199; NSC773264), adavosertib (NSC754352), TP-3654 (NSC805149), carboplatin (NSC241240), KSQ-4279 (NSC840948), and staurosporine (NSC755774) were obtained from the National Cancer Institute (NCI) Developmental Therapeutics Program Chemical Repository (34). The FDA-approved anticancer drug set is available from the NCI Developmental Therapeutics Program. […] The stock solutions were prepared in dimethyl sulfoxide (DMSO, Sigma-Aldrich, St. Louis, MO, cat. D2650) at 800-fold the tested concentration and stored at -70 degrees C prior to their use. All drugs and investigational agents were tested over a range starting from a high concentration at or near the clinical Cmax and decreasing in half-log increments. If the clinical Cmax for an agent had not been determined, the highest concentration tested was 10 microM.
2.3 Cell Culture. All cells were maintained in an incubator at 37 degrees C and 5% CO2 with 95% humidity. The PDC lines were cultured according to standard operating procedures established by the NCI PDMR. All PDCs were thawed and cultured in Matrigel-coated flasks prepared with a working solution of 1X Ham's F-12 nutrient mix, without supplementation (Invitrogen, cat. 11765054), 100 U/mL penicillin-streptomycin (Invitrogen, cat. 15140122), and 2.5% Matrigel (Corning Inc., cat. 354248) for the first three passages. The 857933-349-R-J2-PDC line was cultured in 6C/Colon 1B media, which includes advanced DMEM/F-12 (Thermo Fisher Scientific, cat. 12634028), 10 mM HEPES (Thermo Fisher Scientific, cat. 15630080), 1X GlutaMAX supplement (Thermo Fisher Scientific, cat. 35050061), 0.1 mg/mL primocin (InvivoGen, cat. ant-pm-2), 10% defined fetal bovine serum, heat inactivated (HyClone Laboratories Inc., cat. SH30070.03HI), 50% L-WRN conditioned media (ATCC, cat. CRL-3276), 1.25 mM N-Acetyl-L-cysteine (Sigma-Aldrich, cat. A9165), 10 mM nicotinamide (Sigma-Aldrich, cat. N0636), 1X B-27 supplement (Thermo Fisher Scientific, cat. 17504044), 1X N-2 supplement (Thermo Fisher Scientific, cat. 17502048), 10 microM Y-27632 dihydrochloride (Tocris Bioscience, cat. 1254), and 50 ng/mL human EGF recombinant protein (Thermo Fisher Scientific, cat. PHG0311). The 485176-168-R4-J1-PDC line was cultured in Panc media, which includes all 6C/Colon 1B media components plus 100 ng/mL human FGF-10 (Thermo Fisher Scientific, cat. 100-26), 500 nM SB-431542 (Selleckchem, cat. S1067), and gastrin (Tocris, cat. 3006).
[…]

Setting [1] is: curve of first compound, second compound 0.0316 µM.
Where [2] appears, read: curve of first compound, second compound 0.1 µM.
Where [3] appears, read: curve of first compound, second compound 0.316 µM.
The mark [4] stands for this setting: curve of first compound, second compound 1 µM.
Where [5] appears, read: curve of first compound, second compound 3.16 µM.
Setting [6] is: curve of first compound, second compound 10 µM.
The mark [7] stands for this setting: second compound 0.0316 µM, first compound 0.0316 µM.
Setting [8] is: second compound 0.0316 µM, first compound 0.316 µM.
Where [9] appears, read: second compound 0.1 µM, first compound 0.0316 µM.
The mark [10] stands for this setting: second compound 0.1 µM, first compound 0.316 µM.
[11] abbreviates: second compound 0.316 µM, first compound 0.0316 µM.
Setting [12] is: second compound 0.316 µM, first compound 0.316 µM.
Where [13] appears, read: second compound 1 µM, first compound 0.0316 µM.
[14] abbreviates: second compound 1 µM, first compound 0.316 µM.
Where [15] appears, read: second compound 3.16 µM, first compound 0.0316 µM.
Setting [16] is: second compound 3.16 µM, first compound 0.316 µM.
Where [17] appears, read: second compound 10 µM, first compound 0.0316 µM.
The mark [18] stands for this setting: second compound 10 µM, first compound 0.316 µM.
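Note: spheroids exposed to agents for 7 days before readout.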
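Throughout, for viability, T/C: percent viability relative to DMSO vehicle control taken as 100%.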

The IC50 is the midpoint of a concentration-inhibition curve. As usually defined, the viability, T/C is the result in the treated group divided by that in the control group, in per cent. As for `CC1COCCN1c1cc(C2(O)CC3CCC(C2)O3)c2cnn(-c3ccn[nH]3)c2n1` (stereo not given) + Cc1cnc(CNC(=O)c2c(=O)c3ccc(N4CCCN(C)CC4)nc3n3c2sc2ccccc23)cn1, the IC50 was less than 0.0316 µM under setting [1]; less than 0.0316 µM under setting [2]; less than 0.0316 µM under setting [3]; less than 0.0316 µM under setting [4]; less than 0.0316 µM under setting [5]; less than 0.0316 µM under setting [6]. For the same compound, the viability, T/C under setting [7] is 12.8%; the viability, T/C (second compound 0.0316 µM, first compound 0.1 µM) was 9.62%; the viability, T/C under setting [8] is 7.9%; the viability, T/C (second compound 0.0316 µM, first compound 1 µM) was 5.56%; the viability, T/C (second compound 0.0316 µM, first compound 3.16 µM) is 5.19%; the viability, T/C (second compound 0.0316 µM, first compound 10 µM) is 3.22%. For the same compound, the viability, T/C under setting [9] is 12.9%; the viability, T/C (second compound 0.1 µM, first compound 0.1 µM) is 10.7%; the viability, T/C under setting [10] was 8.05%; the viability, T/C (second compound 0.1 µM, first compound 1 µM) was 5.97%; the viability, T/C (second compound 0.1 µM, first compound 3.16 µM) is 4.94%; the viability, T/C (second compound 0.1 µM, first compound 10 µM) was 2.88%. Besides, the viability, T/C under setting [11] was 13.1%; the viability, T/C (second compound 0.316 µM, first compound 0.1 µM) was 9.42%; the viability, T/C under setting [12] was 6.75%; the viability, T/C (second compound 0.316 µM, first compound 1 µM) was 6.83%; the viability, T/C (second compound 0.316 µM, first compound 3.16 µM) was 4.09%; the viability, T/C (second compound 0.316 µM, first compound 10 µM) is 2.08%. The viability, T/C runs as follows: under setting [13], 12.2%; (second compound 1 µM, first compound 0.1 µM) 11.2%; under setting [14], 6.62%; (second compound 1 µM, first compound 1 µM) 5.07%; (second compound 1 µM, first compound 3.16 µM) 3.93%; (second compound 1 µM, first compound 10 µM) 1.59%. Further, the viability, T/C by setting is: under setting [15], 12.6%; (second compound 3.16 µM, first compound 0.1 µM) 9.23%; under setting [16], 6.99%; (second compound 3.16 µM, first compound 1 µM) 3.25%; (second compound 3.16 µM, first compound 3.16 µM) 0.81%; (second compound 3.16 µM, first compound 10 µM) 0.2%. For the same compound, the viability, T/C by setting is: under setting [17], 0.05%; (second compound 10 µM, first compound 0.1 µM) 0.1%; under setting [18], 0.14%; (second compound 10 µM, first compound 1 µM) 0.08%; (second compound 10 µM, first compound 3.16 µM) 0.14%; (second compound 10 µM, first compound 10 µM) 0.12%.

Regarding `C=CCn1c(=O)c2cnc(Nc3ccc(N4CCN(C)CC4)cc3)nc2n1-c1cccc(C(C)(C)O)n1`, the viability, T/C is, setting by setting: (compound 0.0316 µM) 97.1% and 105% and 99.8%; (compound 0.1 µM) 95.4% and 102% and 93.9%; (compound 0.316 µM) 37.1% and 32.5% and 33.8%; (compound 1 µM) 7.67% and 9.37% and 5.53%; (compound 3.16 µM) 6.89% and 6.69% and 4.84%; (compound 10 µM) 5.09% and 5.85% and 4.19%. Moreover, the IC50 (curve of compound) is 0.245 µM and 0.237 µM and 0.232 µM.

On to `CC[C@@]1(O)C(=O)OCc2c1cc1n(c2=O)Cc2cc3c(CN(C)C)c(O)ccc3nc2-1` + Cc1cnc(CNC(=O)c2c(=O)c3ccc(N4CCCN(C)CC4)nc3n3c2sc2ccccc23)cn1, for which the 50% inhibitory concentration (IC50) under setting [1] was 0.00966 µM; the IC50 under setting [2] is less than 0.000999 µM; the IC50 under setting [3] was less than 0.000999 µM; the half-maximal inhibitory concentration (IC50) under setting [4] is less than 0.000999 µM; the IC50 under setting [5] is less than 0.000999 µM; the half-maximal inhibitory concentration (IC50) under setting [6] was less than 0.000999 µM. Further, the viability, T/C (second compound 0.0316 µM, first compound 0.000999 µM) is 78.1%; the viability, T/C (second compound 0.0316 µM, first compound 0.00316 µM) is 61%; the viability, T/C (second compound 0.0316 µM, first compound 0.00999 µM) was 54.5%; the viability, T/C under setting [7] is 33.9%; the viability, T/C (second compound 0.0316 µM, first compound 0.0999 µM) was 33.8%; the viability, T/C under setting [8] was 28.5%. The viability, T/C reads like this: (second compound 0.1 µM, first compound 0.000999 µM) 29.2%; (second compound 0.1 µM, first compound 0.00316 µM) 37.9%; (second compound 0.1 µM, first compound 0.00999 µM) 32.2%; under setting [9], 31%; (second compound 0.1 µM, first compound 0.0999 µM) 28%; under setting [10], 23.1%. Moreover, the viability, T/C was 24.8% (second compound 0.316 µM, first compound 0.000999 µM); 26.8% (second compound 0.316 µM, first compound 0.00316 µM); 26.9% (second compound 0.316 µM, first compound 0.00999 µM); 25% under setting [11]; 26% (second compound 0.316 µM, first compound 0.0999 µM); 20.5% under setting [12]. Further, the viability, T/C by setting is: (second compound 1 µM, first compound 0.000999 µM) 20.3%; (second compound 1 µM, first compound 0.00316 µM) 24.9%; (second compound 1 µM, first compound 0.00999 µM) 24.4%; under setting [13], 22.9%; (second compound 1 µM, first compound 0.0999 µM) 23.8%; under setting [14], 22.6%. The viability, T/C is 22.5% (second compound 3.16 µM, first compound 0.000999 µM); 21.7% (second compound 3.16 µM, first compound 0.00316 µM); 20.3% (second compound 3.16 µM, first compound 0.00999 µM); 19.2% under setting [15]; 20% (second compound 3.16 µM, first compound 0.0999 µM); 16.1% under setting [16]. For the same compound, the viability, T/C runs as follows: (second compound 10 µM, first compound 0.000999 µM) 0.08%; (second compound 10 µM, first compound 0.00316 µM) 0.14%; (second compound 10 µM, first compound 0.00999 µM) 0.19%; under setting [17], 0.16%; (second compound 10 µM, first compound 0.0999 µM) 0.22%; under setting [18], 0.17%.

Regarding `COc1cc(C2c3cc4c(cc3C(OC3OC5COC(C)OC5C(O)C3O)C3COC(=O)C23)OCO4)cc(OC)c1O` (stereo not given), the viability, T/C runs as follows: (compound 0.0316 µM) 115% and 98.4% and 91%; (compound 0.1 µM) 62% and 67.7% and 92.4%; (compound 0.316 µM) 29.3% and 26.7% and 34.1%; (compound 1 µM) 26.2% and 28.1% and 42.2%; (compound 3.16 µM) 22.6% and 26.7% and 29.9%; (compound 10 µM) 10.5% and 9.2% and 10.2%. The IC50 (curve of compound) was 0.159 µM and 0.166 µM and 0.23 µM.

Regarding `O=C(c1cc(Cc2n[nH]c(=O)c3ccccc23)ccc1F)N1CCN(C(=O)C2CC2)CC1`, the viability, T/C was 113% and 106% and 116% (compound 0.0316 µM); 87.2% and 96.7% and 103% (compound 0.1 µM); 103% and 99% and 90.6% (compound 0.316 µM); 91% and 94.4% and 89.3% (compound 1 µM); 89.1% and 97.4% and 95.1% (compound 3.16 µM); 57.6% and 60.7% and 49% (compound 10 µM). Further, the half-maximal inhibitory concentration (IC50) (curve of compound) is more than 10 µM.

These data come from PubChem BioAssay AID2060503 (Molecular Pharmacology Branch, DTP, NCI, 2025).
